# Laboratory results published in US20080255031A1, “METHOD FOR ENHANCING INSULIN SECRETION” (priority 2007, published 2008).
# Where two headings read alike, the source gives them in different places.
# What was measured:
# IKr [1] = target: T1, IKr (Canis lupus familiaris, UniProt Q9TSZ3); assay: cell-based
# T1 sequence (Q9TSZ3 1-1158): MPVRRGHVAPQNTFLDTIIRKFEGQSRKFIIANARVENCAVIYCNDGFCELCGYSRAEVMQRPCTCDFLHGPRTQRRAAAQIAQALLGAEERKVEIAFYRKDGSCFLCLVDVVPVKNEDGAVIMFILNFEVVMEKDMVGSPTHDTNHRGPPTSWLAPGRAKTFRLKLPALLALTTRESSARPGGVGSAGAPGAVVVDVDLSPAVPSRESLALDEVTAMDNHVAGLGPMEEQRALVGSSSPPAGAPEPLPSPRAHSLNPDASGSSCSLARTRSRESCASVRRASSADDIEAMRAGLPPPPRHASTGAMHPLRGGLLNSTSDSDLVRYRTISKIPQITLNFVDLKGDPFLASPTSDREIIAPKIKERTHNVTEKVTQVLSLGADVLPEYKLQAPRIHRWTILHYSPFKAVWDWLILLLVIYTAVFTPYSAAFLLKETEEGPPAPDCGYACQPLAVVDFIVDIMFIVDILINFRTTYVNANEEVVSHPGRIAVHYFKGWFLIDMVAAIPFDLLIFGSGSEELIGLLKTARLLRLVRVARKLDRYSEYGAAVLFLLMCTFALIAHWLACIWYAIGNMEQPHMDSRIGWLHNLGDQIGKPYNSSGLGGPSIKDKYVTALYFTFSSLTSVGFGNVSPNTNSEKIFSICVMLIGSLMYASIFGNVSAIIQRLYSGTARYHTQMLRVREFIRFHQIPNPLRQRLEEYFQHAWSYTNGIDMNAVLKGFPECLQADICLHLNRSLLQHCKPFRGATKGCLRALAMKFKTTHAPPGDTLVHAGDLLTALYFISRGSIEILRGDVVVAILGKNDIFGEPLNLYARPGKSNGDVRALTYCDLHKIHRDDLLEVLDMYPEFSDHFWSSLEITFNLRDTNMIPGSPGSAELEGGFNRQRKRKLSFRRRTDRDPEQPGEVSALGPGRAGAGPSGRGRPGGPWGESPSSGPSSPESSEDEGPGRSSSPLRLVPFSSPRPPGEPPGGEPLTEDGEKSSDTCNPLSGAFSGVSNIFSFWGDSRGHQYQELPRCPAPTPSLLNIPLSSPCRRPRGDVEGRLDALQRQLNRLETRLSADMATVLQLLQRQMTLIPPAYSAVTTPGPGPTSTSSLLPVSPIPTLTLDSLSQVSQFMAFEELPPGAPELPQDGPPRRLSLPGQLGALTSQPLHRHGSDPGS
# Method: Whole cell currents were recorded from isolated canine left ventricular midmyocrdial cells at 37° C. IKr and IKs were recorded during standard pulse protocols. Action potentials recorded at basic cycle lengths (BCL) of 300 and 2000 ms were used as command waveforms during voltage claim to measure late INa. Enantiomeric effects were determined at concentrations of 3, 10, and 30 μM.
# Late INa was evaluated at two voltages during the plateau and final repolarization of an action potential voltage claims.
# [2] = tested on: human isolated pancreatic islets; assay: GSIS in human isolated pancreatic islets; assay type: cell-based; conditions: one donor, 30 min incubation (Example 4, FIG. 4)
# Method: Rat islets were isolated from male Sprague-Dawley (SD) rats (8-12 weeks old, n=6) as described by Yang Z. et al. […] Insulin secretion assay was performed essentially as previously described by Liu D. et al. Steroids 2006, 71, 691-699. […] Insulin secreted in experimental samples was measured by a RIA kit (Mercodia, N.C.). […] The procedure used for the human islets was the same as the procedure used in Example 1 above, except that the incubation period was 30 minutes, instead of the 60 minutes used in Example 1.
# [3] = Solubility in aqueous solutions by pH (Table 1); assay type: physicochemical
# [4] = tested on: rat isolated pancreatic islets; assay: Glucose stimulated insulin secretion (GSIS) in rat isolated pancreatic islets; assay type: cell-based
# Method: Rat islets were isolated from male Sprague-Dawley (SD) rats (8-12 weeks old, n=6) as described by Yang Z. et al. […] Insulin secretion assay was performed essentially as previously described by Liu D. et al. Steroids 2006, 71, 691-699. […] Insulin secreted in experimental samples was measured by a RIA kit (Mercodia, N.C.). All insulin secretion data in the present study were normalized to insulin secretion per islet. There was a biphasic response for insulin secretion to ranolazine.
# IKs = conditions: Zygmunt et al. (2002); read-out: IC50 value (current not named); cited from earlier work
# CYP2D6 [5] = target: T2, CYP2D6 (Homo sapiens, UniProt P10635); assay: biochemical
# Method: The substrate, buffer and enzyme were pre-warmed at 37° C. The pre-warmed NADPH regenerating system and were then added and the samples gently mixed and incubated for 30 minutes. The effect of ranolazine on the CYP2D6 marker reactions to form 1-hydroxy-bufurolol, and dextrophan was monitored by tandem mass spectrometric assays. A known CYP2D6 inhibitor, quinidine, was included as a positive control. The negative control samples consisted of all components except ranolazine or known inhibitors. Incubations were carried out in duplicate.
# CYP2D6 [6] = target: T2, CYP2D6; assay: Inhibitory effects on CYP2D6 in extensive metabolizers of dextromethorphan; assay type: in vivo; design: evaluated in extensive metabolizers of dextromethorphan; from tissue; host or cells: in vivo, subjects who are extensive metabolizers
# IKr [7] = target: T1, IKr; design: Whole cell currents were recorded from isolated canine left ventricular midmyocrdial cells; endogenous in cells; host or cells: isolated canine left ventricular midmyocardial cells; conditions: Zygmunt et al. (2002); cited from earlier work
# [8] = patients; U.S. Patent Publication No. 2004/0063717; cited from earlier work
# T2 sequence (P10635 whole entry): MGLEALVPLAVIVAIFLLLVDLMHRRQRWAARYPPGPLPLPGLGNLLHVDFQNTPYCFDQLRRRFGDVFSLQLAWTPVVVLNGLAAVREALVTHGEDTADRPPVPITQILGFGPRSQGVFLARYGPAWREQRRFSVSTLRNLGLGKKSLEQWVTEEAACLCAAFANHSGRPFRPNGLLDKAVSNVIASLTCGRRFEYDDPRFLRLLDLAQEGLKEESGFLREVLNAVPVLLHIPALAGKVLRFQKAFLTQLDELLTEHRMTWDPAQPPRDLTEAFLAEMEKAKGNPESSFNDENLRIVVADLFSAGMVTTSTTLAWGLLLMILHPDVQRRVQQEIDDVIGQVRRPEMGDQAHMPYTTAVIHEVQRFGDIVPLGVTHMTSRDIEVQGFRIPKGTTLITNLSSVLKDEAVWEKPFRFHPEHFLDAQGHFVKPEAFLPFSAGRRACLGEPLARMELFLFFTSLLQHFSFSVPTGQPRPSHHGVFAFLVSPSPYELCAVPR
smiles,measurement,setting,value
"COc1ccccc1OC[C@H](O)CN1CCN(CC(=O)Nc2c(C)cccc2C)CC1 [R-ranolazine, (R)-(+)-N-(2,6-dimethylphenyl)-4-[2-hydroxy-3-(2-methoxyphenoxy)-propyl]-1-piperazineacetamide]",IC50,IKr [1],28 ± 4 µM
same,increasing the secretion of insulin in response to glucose,[2],significantly more effective
"COc1ccccc1OCC(O)CN1CCN(CC(=O)Nc2c(C)cccc2C)CC1 (racemic) [ranolazine, (±)-N-(2,6-dimethylphenyl)-4-[2-hydroxy-3-(2-methoxyphenoxy)propyl]-1-piperazine-acetamide]",USP Solubility Class,[3]; Solution pH 4.81,Freely Soluble
same,USP Solubility Class,[3]; Solution pH 4.89,Soluble
same,USP Solubility Class,[3]; Solution pH 4.90,Soluble
same,USP Solubility Class,[3]; Solution pH 5.04,Soluble
same,USP Solubility Class,[3]; Solution pH 5.35,Sparingly Soluble
same,USP Solubility Class,[3]; Solution pH 5.82,Slightly soluble
same,USP Solubility Class,[3]; Solution pH 6.46,Slightly soluble
same,USP Solubility Class,[3]; Solution pH 6.73,Very slightly soluble
same,USP Solubility Class,[3]; Solution pH 7.08,Very slightly soluble
same,USP Solubility Class,[3]; Solution pH 7.59 (unbuffered water),Very slightly soluble
same,Solubility,[3]; Solution pH 7.79,170 µg/mL
same,USP Solubility Class,[3]; Solution pH 7.79,Very slightly soluble
same,USP Solubility Class,[3]; Solution pH 12.66,Very slightly soluble
same,increase of insulin secretion (GSIS),"[4]; 1 nM to 1 μM, concentration-dependent, 20 mM glucose, 60 min",2-5 fold
same,effect on GSIS,"[4]; 10 μM, compared with 20 mM glucose alone",no significant effect on GSIS
same,IC50,IKs,> 100 µM
same,IC50,CYP2D6 [5],324 µM
same,inhibition of CYP2D6 by ranolazine and/or metabolites,CYP2D6 [6],partially inhibit CYP2D6
same,IC50,IKr [7],11 µM
same,HbA1c levels,[8],reduced HbA1c levels
"COc1ccccc1OC[C@@H](O)CN1CCN(CC(=O)Nc2c(C)cccc2C)CC1 [S-ranolazine, (S)-(−)-N-(2,6-dimethylphenyl)-4-[2-hydroxy-3-(2-methoxyphenoxy)-propyl]-1-piperazineacetamide]",IC50,IKr [1],10 ± 2 µM
